Columns and labels:
[1] = tested on: ducksalad; experiment: Test C flooded paddy test; format: in vivo, Heteranthera limosa; conditions: Flood
Summary of the method: (§1)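 Ratings reflect visual comparison with controls on a 0–100 scale, where 100 is complete control. Compound is dosed into standing paddy water 3 cm deep over 2-leaf-stage plants, kept in the greenhouse 13 to 15 days.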

[2] = tested on: chickweed; experiment: Test C postemergence herbicide test; format: in vivo, Stellaria media
Summary of the method: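 Response is scored visually on a 0–100 scale (100 = complete control) relative to untreated controls, 13 to 15 days after treatment. Plants were sprayed postemergence at the 1- to 4-leaf stage (2 to 18 cm tall) and kept in a greenhouse.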

[3] = tested on: blackgrass; experiment: Test A postemergence herbicide test; format: in vivo, Alopecurus myosuroides
Summary of the method: (§2)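 Visual injury rating, 0 (no effect) to 100 (complete control), versus untreated controls ~10 days after treatment. Postemergence spray applied at one- to two-leaf stage, plants 2–10 cm tall, potted in loam soil/sand. Greenhouse-held.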

[4] = tested on: barnyardgrass; experiment: Test C flooded paddy test; format: in vivo, Echinochloa crus-galli; conditions: Flood
Summary of the method: as §1

[5] = tested on: ragweed; experiment: Test A pre-/postemergence herbicide test; format: in vivo, Ambrosia elatior
Summary of the method: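 Both application timings used compounds in a non-phytotoxic solvent plus surfactant. Pre-emergence: soil sprayed directly after seeding into loam/sand. Post-emergence: foliage of 2–10 cm seedlings (1–2 leaves) sprayed. Injury rated ~10 days later, 0–100.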

[6] = tested on: galium; experiment: Test A postemergence herbicide test; format: in vivo, Galium aparine
Summary of the method: as §2

[7] = 31 g ai/ha, scale of 0 to 100 where 0 is no effect and 100 is complete control, 13 to 15 days
[8] = 62 g ai/ha, scale of 0 to 100 where 0 is no effect and 100 is complete control, 13 to 15 days
[9] = 125 g ai/ha, scale of 0 to 100 where 0 is no effect and 100 is complete control, 13 to 15 days
[10] = 250 g ai/ha, scale of 0 to 100 where 0 is no effect and 100 is complete control, 13 to 15 days
[11] = 31 g ai/ha, scale 0 to 100 (0 no effect, 100 complete control)
[12] = 62 g ai/ha, scale 0 (no effect) to 100 (complete control)
[13] = 125 g ai/ha, scale 0 to 100 (0 no effect, 100 complete control)
[14] = 250 g ai/ha, scale 0 to 100 (0 no effect, 100 complete control)
[15] = 125 g ai/ha, 0 to 100 scale, 0 is no effect, 100 is complete control
[16] = 125 g ai/ha, visual rating, 0 to 100 scale, 0 no effect, 100 complete control, approximately 10 days, preemergence
[17] = Postemergence, 125 g ai/ha, 0 to 100 scale, 0 is no effect, 100 is complete control
[18] = preemergence, 500 g ai/ha, 0 to 100 scale, 0 is no effect and 100 is complete control
[19] = 16 g ai/ha, scale 0 to 100 (0 no effect, 100 complete control)
[20] = 500 g ai/ha, 0 to 100 scale (0 no effect, 100 complete control)
[21] = Postemergence, 125 g ai/ha, visual rating on 0 to 100 scale (0 no effect, 100 complete control), approx. 10 days
[22] = Postemergence, 500 g ai/ha, 0 to 100 scale (0 no effect, 100 complete control)
[23] = Preemergence, 125 g ai/ha, 0 to 100 scale where 0 is no effect and 100 is complete control

SMILES	Plant response rating, Ducksalad [1, 8]	Plant response rating, Ducksalad [1, 9]	Plant response rating, Ducksalad [1, 10]	Plant response rating, Chickweed [2, 11]	Plant response rating, Chickweed [2, 12]	Plant response rating, Chickweed [2, 13]	Plant response rating, Chickweed [2, 14]	Plant response rating, Blackgrass [3, 15]	Blackgrass plant response rating (0 to 100 scale, 0 is no effect, 100 is complete control) ([3]; 500 g ai/ha)	Plant response rating, Barnyardgrass [4, 8]	Plant response rating, Barnyardgrass [4, 9]	Plant response rating, Barnyardgrass [4, 10]	Plant response rating, Ragweed [5, 16]	Plant response rating, Ragweed [5, 17]	Ragweed plant response rating (0 to 100 scale, 0 is no effect, 100 is complete control) ([5]; Postemergence, 500 g ai/ha)	Plant response rating, Ragweed [5, 18]	Plant response rating, Galium [6, 15]	Galium plant response rating (0 to 100 scale, 0 is no effect, 100 is complete control) ([6]; 500 g ai/ha)	Plant response rating, Ducksalad ([1]; 500 g ai/ha, scale 0 to 100)	Plant response rating, Barnyardgrass ([4]; 500 g ai/ha, scale 0 to 100)	further results
O=C1NCC(c2ccc(C(F)(F)F)cc2)C1C(=O)Nc1ccc(F)c(F)c1F (stereo not drawn) [Compound 232]	75	75	95	70	85	85	85	50	50	30	40	60	30	20	50	90	60	60			Plant response rating, Ducksalad [1, 7]: 50; Plant response rating, Barnyardgrass [4, 7]: 0
CN1CC(c2ccc(F)cc2)C(C(=O)Nc2cccc(F)c2F)C1=O (stereo not drawn) [Compound 271]		70	100	5	50			50			40	45				80	40		100	75	Plant response rating, Ducksalad ([1]; 1000 g ai/ha, scale 0 to 100): 100; Plant response rating, Chickweed ([2]; 8 g ai/ha, scale 0 to 100 (0 no effect, 100 complete control)): 0; Plant response rating, Chickweed [2, 19]: 5; Plant response rating, Blackgrass [3, 20]: 60; Plant response rating, Barnyardgrass ([4]; 1000 g ai/ha, scale 0 to 100): 80; Plant response rating, Ragweed [5, 21]: 0; Plant response rating, Ragweed [5, 22]: 60; Plant response rating, Ragweed [5, 23]: 20; Plant response rating, Galium [6, 20]: 70
O=C1NCC(c2cccc(Cl)c2)C1C(=O)Nc1cccc(F)c1F (racemic) [Compound 275]	85	100	100	50	60	85	85	50		35	45	60				40	60		100	70	Plant response rating, Blackgrass [3, 20]: 60; Plant response rating, Ragweed [5, 21]: 30; Plant response rating, Ragweed [5, 22]: 30; Plant response rating, Ragweed [5, 23]: 20; Plant response rating, Galium [6, 20]: 70
CN1CC(c2cccc(C(F)(F)F)c2)C(C(=O)Nc2ccccc2F)C1=O (stereo not drawn) [Compound 277]	65	80	85	40	0	40		50		50	65	70				20	70		95	70	Plant response rating, Chickweed [2, 19]: 0; Plant response rating, Blackgrass [3, 20]: 50; Plant response rating, Ragweed [5, 21]: 30; Plant response rating, Ragweed [5, 22]: 30; Plant response rating, Ragweed [5, 23]: 20; Plant response rating, Galium [6, 20]: 70
O=C1NCC(c2cccc(C(F)(F)F)c2)C1C(=O)Nc1ccc(F)cc1F (racemic) [Compound 207]		60	75	30	50	60	90	70	70		40	60	0	0	0	20	0	50	100	70	Plant response rating, Ducksalad ([1]; 1000 g ai/ha, scale 0 to 100): 80; Plant response rating, Barnyardgrass ([4]; 1000 g ai/ha, scale 0 to 100): 75
O=C1NCC(c2cccc(OC(F)F)c2)C1C(=O)Nc1ccccc1F (stereo not drawn) [Compound 223]	50	65	95	40	45	50	80	60	70	0	0	0	30	0	30	50	50	60			Plant response rating, Ducksalad [1, 7]: 30; Plant response rating, Barnyardgrass [4, 7]: 0

From patent US10294202B2, “Pyrrolidinones as herbicides” (FMC Corporation, priority 2013, dated 2019)
